Tests used:
Type in all cases: in vivo
[1] = tested on: Chemotherapeutic agent-caused constipation models of Balb/c mice; test: Examples 272-342 (Table 5): oral CDK inhibitor, relief of constipation caused by a chemotherapeutic agent; details: cycle 8 days;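 further: percent of treated mice relieved versus chemotherapy group by feces reduction rate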
Excerpt: Construction of mouse animal models: Chemotherapeutic agent-caused constipation models of Balb/c mice were constructed according to the administration mode and frequency of the chemotherapeutic agent as shown in Table 5.
(§1) Balb/c mice were fed for 1 week, and then divided into groups. The experiment was divided into a control group, a chemotherapeutic agent group, and a CDK inhibitor group, each of which comprised 10 mice, to perform the administration experiment, for which the administration dosage, mode, time and frequency were shown in Table 5. The control group: being intragastrically administered with the same solvent as that used in the CDK inhibitor group (the time was shown in Table 5), and then being injected/intragastrically administered with the same solvent as that used in the chemotherapeutic agent group (the administration mode was shown in Table 5): the chemotherapeutic agent group: being intragastrically administered with the same solvent as that used in the CDK inhibitor group (the time was shown in […]), and then being injected/intragastrically administered with the chemotherapeutic agent (the type, administration mode and dosage were shown in Table 5): the CDK inhibitor group: being intragastrically administered with the CDK inhibitor (the time was shown in Table 5), and then being administered with the chemotherapeutic agent (the mode and dosage were shown in Table 5).
Feces reduction rate (%)=(the control group−the chemotherapeutic agent group or the CDK inhibitor group)/the control group*100%
The feces amount of mice within 3 hours was observed and recorded every day.

[2] = tested on: Chemotherapeutic agent-caused diarrhea models of Balb/c mice; test: Examples 1-229 (Table 3): oral CDK inhibitor, relief of diarrhea caused by a chemotherapeutic agent;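 further: percent of treated mice whose diarrhea grade fell below chemotherapy-group average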
Excerpt: Construction of mouse animal models: Chemotherapeutic agent-caused diarrhea models of Balb/c mice were constructed according to the administration mode and frequency of the chemotherapeutic agent as shown in Table 3.
as §1, with “in Table 3. The control” for “in Table 5. The control”, “in Table 3), and then” for “in Table 5), and then”, “in Table 3): the chemotherapeutic” for “in Table 5): the chemotherapeutic”, “in Table 3); the CDK” for “in Table 5): the CDK”, “in Table 3).” for “in Table 5).”
(§2) The diarrhea grading of mice was observed and recorded every day.

[3] = tested on: diarrhea caused by a chemotherapeutic agent in Balb/c mice; test: Examples 343-381 (Table 6): oral versus intravenous CDK inhibitor, relief of diarrhea caused by a chemotherapeutic agent; details: for Relative remission rate: Example 369, Topotecan (TP) intramuscular injection 10 mg/kg single, 12 h before, cycle 10 days;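 on Relative remission rate: percent of treated mice whose diarrhea grade fell below chemotherapy-group average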
Excerpt: Balb/c mice were fed for 1 week, and then divided into groups. The experiment was divided into a control group, a chemotherapeutic agent group, and an oral administration group of a CDK inhibitor, and an intravenous injection group of a CDK inhibitor, each of which comprised 10 mice, to perform the administration experiment, for which the administration dosage, mode, time and frequency were shown in Table 6. The control group: being injected/intragastrically administered with the same solvent as that used in the CDK inhibitor group (the time was shown in Table 6), and then being injected/intragastrically administered with the same solvent as that used in the chemotherapeutic agent group (the administration mode was shown in Table 6): the chemotherapeutic agent group: being injected/intragastrically administered with the same solvent as that used in the CDK inhibitor group (the time was shown in Table 6), and then being injected/intragastrically administered with the chemotherapeutic agent (the type, administration mode and dosage were shown in Table 6): the oral administration group of the CDK inhibitor: being intragastrically administered with the CDK inhibitor (the time was shown in Table 6), and then being administered with the chemotherapeutic agent (the mode and dosage were shown in Table 6): the intravenous injection group of the CDK inhibitor: being injected with the CDK inhibitor through tail vein (the time was shown in Table 6), and then being administered with the chemotherapeutic agent (the mode and dosage were shown in Table 6).
as §2

CN[C@@H]1C[C@H]2O[C@@](C)([C@@H]1OC)n1c3ccccc3c3c4c(c5c6ccccc6n2c5c31)C(=O)N[C@H]4O [KRX-0601]
Relative remission rate ([1]; Example 334, Cytarabine (Ara-C) intramuscular injection 600 mg/kg single, CDK inhibitor oral 40 mg/kg single, 12 h before): 10% | Relative remission rate (%) ([2]; Example 165, Docetaxel (DTX) oral administration 30 mg/kg single, CDK inhibitor oral 250 mg/kg single 3 h before, cycle 8 days): 10% | Relative remission rate ([3]; CDK inhibitor intravenous injection 250 mg/kg single): 10% | Relative remission rate ([3]; CDK inhibitor oral 250 mg/kg single): 20% | relief of diarrhea by oral administration and injection administration ([3]; diarrhea caused by etoposide, etoposide in combination with cisplatin, carboplatin, gemcitabine, gemcitabine in combination with carboplatin, and topotecan, oral administration has the most significant effect): effectively relieve diarrhea

CNC(=O)c1nn(C)c2c1C(C)(C)Cc1cnc(Nc3ccc(N4CCN(C)CC4)cc3)nc1-2 [Milciclib]
Relative remission rate ([1]; Example 315, Docetaxel (DTX) intraperitoneal injection 15 mg/kg single, CDK inhibitor oral 60 mg/kg single, 0.5 h before): 30% | Relative remission rate ([1]; Example 316, Docetaxel (DTX) intraperitoneal injection 15 mg/kg single, CDK inhibitor oral 60 mg/kg single, 4 h before): 20% | Relative remission rate ([1]; Example 317, Docetaxel (DTX) intraperitoneal injection 15 mg/kg single, CDK inhibitor oral 60 mg/kg single, 8 h before): 20% | Relative remission rate ([1]; Example 318, Docetaxel (DTX) intraperitoneal injection 15 mg/kg single, CDK inhibitor oral 60 mg/kg single, 12 h before): 30% | Relative remission rate ([1]; Example 319, Docetaxel (DTX) intraperitoneal injection 15 mg/kg single, CDK inhibitor oral 60 mg/kg single, 24 h before): 10% | Relative remission rate ([1]; Example 320, Docetaxel (DTX) intraperitoneal injection 15 mg/kg single, CDK inhibitor oral 60 mg/kg single, 48 h before): 0% | Relative remission rate (%) ([2]; Example 194, Gemcitabine 60 mg/kg and paclitaxel 10 mg/kg intraperitoneal injection single, CDK inhibitor oral 60 mg/kg single, 2 h before, 8 days): 40%

CC(=O)Nc1ccc([C@H](C)C(=O)Nc2ncc(C(C)C)s2)cc1 [PHA-690509]
Relative remission rate (%) ([2]; Example 123, Irinotecan (CPT-11) intraperitoneal injection 240 mg/kg single, CDK inhibitor oral 60 mg/kg single 12 h before, cycle 7 days): 40%

CC(C)CC(=O)Nc1[nH]nc2c1CN(C(=O)C1CCN(C)CC1)C2(C)C [PHA-793887]
Relative remission rate (%) ([2]; Example 160, Docetaxel (DTX) intraperitoneal injection 10 mg/kg single, CDK inhibitor oral 70 mg/kg single 4 h before, cycle 8 days): 30%

COCCN1CCN(Cc2ccc(-c3n[nH]c4c3C(=O)c3c(NC(=O)NN5CCOCC5)cccc3-4)cc2)CC1 [RGB-286638]
Relative remission rate (%) ([2]; Example 124, Irinotecan (CPT-11) intraperitoneal injection 240 mg/kg single, CDK inhibitor oral 100 mg/kg single 12 h before, cycle 7 days): 60% | Relative remission rate (%) ([2]; Example 130, Irinotecan (CPT-11) intravenous injection 200 mg/kg single, CDK inhibitor oral 100 mg/kg single 8 h before, cycle 7 days): 50%

COc1ccc(F)c(F)c1C(=O)c1cnc(NC2CCN(S(C)(=O)=O)CC2)nc1N [RO4584820]
Relative remission rate (%) ([2]; Example 218, Fluorouracil 100 mg/kg and irinotecan 200 mg/kg intravenous injection single, CDK inhibitor oral 70 mg/kg single, 4 h before, 10 days): 50%

COc1cc(OC)c(/C=C/S(=O)(=O)Cc2ccc(OC)c(NCC(=O)O)c2)c(OC)c1 [Rigosertib]
Relative remission rate (%) ([2]; Example 116, Irinotecan (CPT-11) intraperitoneal injection 240 mg/kg single, CDK inhibitor oral 250 mg/kg single 4 h before, cycle 7 days): 20% | Relative remission rate (%) ([2]; Example 189, Gemcitabine (GEM) intraperitoneal injection 120 mg/kg single, CDK inhibitor oral 250 mg/kg single, 6 h before, 8 days): 30% | Relative remission rate (%) ([2]; Example 214, Fluorouracil 100 mg/kg and irinotecan 200 mg/kg intravenous injection single, CDK inhibitor oral 250 mg/kg single, 2 h before, 10 days): 20%

Cc1c(Br)c(Br)c2c3c1nc(N1CCNCC1)n3CCC2 [SEL120]
Relative remission rate (%) ([2]; Example 75, Oxaliplatin intraperitoneal injection 20 mg/kg single, CDK inhibitor oral 80 mg/kg single 8 h before, cycle 8 days): 40% | Relative remission rate (%) ([2]; Example 120, Irinotecan (CPT-11) intraperitoneal injection 240 mg/kg single, CDK inhibitor oral 80 mg/kg single 8 h before, cycle 7 days): 40%

CN1CC[C@H](c2c(OP(=O)(O)O)cc(O)c3c(=O)cc(-c4ccccc4Cl)oc23)[C@H](O)C1 [TP-1287]
Relative remission rate (%) ([2]; Example 37, Fluorouracil (5-Fu) intraperitoneal injection 125 mg/kg single, CDK inhibitor oral 10 mg/kg single 10 h before, cycle 10 days): 40%

CC(C)c1c2cc(-c3nc(Nc4ccc(N5CCNCC5)cn4)ncc3F)ccc2nn1C [TQB-3616]
Relative remission rate (%) ([2]; Example 32, Fluorouracil (5-Fu) intraperitoneal injection 125 mg/kg single, CDK inhibitor oral 70 mg/kg single 4 h before, cycle 10 days): 30% | Relative remission rate (%) ([2]; Example 148, Docetaxel (DTX) intraperitoneal injection 10 mg/kg single, CDK inhibitor oral 70 mg/kg single 4 h before, cycle 8 days): 50% | Relative remission rate (%) ([2]; Example 197, Gemcitabine 60 mg/kg and paclitaxel 10 mg/kg intravenous injection single, CDK inhibitor oral 70 mg/kg single, 4 h before, 8 days): 60% | Relative remission rate (%) ([2]; Example 220, Fluorouracil 100 mg/kg and oxaliplatin 10 mg/kg intraperitoneal injection single, CDK inhibitor oral 70 mg/kg single, 6 h before, 10 days): 60%

CN1CC[C@@H](c2c(O)cc(O)c3c(=O)cc(-c4ccc(C(F)(F)F)cc4Cl)oc23)[C@@H]1CO [Voruciclib]
Relative remission rate (%) ([2]; Example 76, Oxaliplatin intraperitoneal injection 20 mg/kg single, CDK inhibitor oral 250 mg/kg single 4 h before, cycle 8 days): 70% | Relative remission rate (%) ([2]; Example 203, Gemcitabine 60 mg/kg and paclitaxel 10 mg/kg intravenous injection single, CDK inhibitor oral 250 mg/kg single, 8 h before, 8 days): 80%

CN1C/C=C/CCOc2cccc(c2)-c2ccnc(n2)Nc2cccc(c2)C1 [Zotiraciclib]
Relative remission rate (%) ([2]; Example 33, Fluorouracil (5-Fu) intraperitoneal injection 125 mg/kg single, CDK inhibitor oral 100 mg/kg single 4 h before, cycle 10 days): 20% | Relative remission rate (%) ([2]; Example 152, Docetaxel (DTX) intraperitoneal injection 10 mg/kg single, CDK inhibitor oral 100 mg/kg single 8 h before, cycle 8 days): 30%

FN-1501
Relative remission rate (%) ([2]; Example 36, Fluorouracil (5-Fu) intraperitoneal injection 125 mg/kg single, CDK inhibitor oral 200 mg/kg single 6 h before, cycle 10 days): 60% | Relative remission rate (%) ([2]; Example 156, Docetaxel (DTX) intraperitoneal injection 10 mg/kg single, CDK inhibitor oral 200 mg/kg single 10 h before, cycle 8 days): 60% | Relative remission rate (%) ([2]; Example 169, Docetaxel (DTX) intravenous injection 10 mg/kg single, CDK inhibitor oral 200 mg/kg single 8 h before, cycle 8 days): 50%

Reference: US20240293413A1, “COMPOUND AND METHOD FOR TREATING CHEMOTHERAPY-RELATED GASTROINTESTINAL SIDE EFFECTS” (ONQUALITY PHARMACEUTICALS CHINA LTD., priority 2021, published 2024)
